Counter-ions that a name gives are not always drawn.
How the values were obtained:
[1] = target: T1, α1G T-type calcium channel (Homo sapiens, UniProt O43497); assay: Assay for % inhibiting activity against T-type calcium channel using FDSS6000; format: cell-based; conditions: HEK293 cells expressing α1G; for inhibition at 10 µM: HEK293, 10 μM
T1 construct: host or cells: HEK293
Method: In the present invention, in order to search an efficient inhibitor against T-type calcium channel, a primary assay for T-type calcium channel inhibiting activity was conducted by a high-efficient assay using FDSS6000, wherein mammal HEK293 cell lines (originated from human kidney carcinoma cells) which specifically expresses α1G of T-type calcium channel was used for primary assay. Through the primary assay, compounds which show meaningful inhibition effects were selected. The selected compounds were used in a second assay for T-type calcium channel inhibiting activity using electrophysiological whole cell patch clamp method, wherein mammal HEK293 cell lines (originated from human kidney carcinoma cells) which specifically expresses α1G of T-type calcium channel was used for the second assay.
At 12-24 hours before being used for this assay, cells of HEK293 cell line (α1G cell line: KCTC 10519BP, Korean Collection for Type Cultures), which stably express α1G T-type calcium channel and Kir2.1, were sub-cultured in a poly-L-lysine treated 96-well plate with the density of 4×10^4 per a well using a 96-well cell dispenser (Titertek). On the of assay, the 96-well plate to which the cells were attached were washed three times with HEPES buffer solution (150 mM of NaCl, 5 mM of KCl, 1 mM of MgCl2, 2 mM of CaCl2, 10 mM of HEPES, 10 mM of glucose; pH 7.4) using a 96-well plate automatic washing device (Bio Tek), then reacted with HEPES buffer solution containing 5 μM fluo-3/AM and 0.001% Pluronic F-127 under room temperature for 1 hour, to label with fluorescent dye, and then further washed two times with HEPES buffer solution.
Thereafter, at 10 minutes before the measurement using device FDSS6000, a washing with HEPES buffer solution containing 10 mM CaCl2 was conducted once more, and the final volume was adjusted to 81 μl. Besides the above 96-well plate containing the cells, additional two drug 96-well plates were provided, wherein the 96-well plates contain inhibiting drug and KCl (final concentration: 75 mM) for activating T-type calcium channel, respectively. Since most of cell-based HTS devices are equipped with a liquid application system for injection of drug, but have no liquid sucking system, the inhibiting drug to be tested and KCl were respectively provided at the five-times higher concentration in 10 mM CaCl2 HEPES buffer solution at the amount of 27 μl, diluted five-times at the final cell plate volume of 135 μl, and then used in this test. The concrete method of measurement using FDSS6000 was as follows: After recording the reference value of 20 seconds, the change of intracellular Ca^2+ concentration which induced by treatment of the inhibiting drug to be tested for 75 seconds followed by administration of KCl was measured, wherein the percentage (%) inhibition effect of the test drug, through estimating the area of ratio value of 340/380 in the control without treatment of the test drug as 100%. As a reference drug, mibefradil was used.
For accurate calcium-imagination, the light source of 4 xenon lamps in FDSS6000 were radiated to make the cells exposed selectively to the excitation wavelength (340 nm and 380 nm) by computer-controlled filter wheel. Data was obtained at interval of each 1.23 second. The emitter fluorescence light inflowed through long-pass filter was obtained as an average 340/380 ratio value for each well in the 96-wells by using CCD camera and digital fluorescence analyzer in FDSS6000. All image data and analyses were obtained by using FDSS6000-exclusive program provide from Hamamatsu Photonics.

[2] = Table 4 (Chemical Formula 3 series)
[3] = Table 3 (Chemical Formula 2 series)

T1 sequence (O43497 whole entry): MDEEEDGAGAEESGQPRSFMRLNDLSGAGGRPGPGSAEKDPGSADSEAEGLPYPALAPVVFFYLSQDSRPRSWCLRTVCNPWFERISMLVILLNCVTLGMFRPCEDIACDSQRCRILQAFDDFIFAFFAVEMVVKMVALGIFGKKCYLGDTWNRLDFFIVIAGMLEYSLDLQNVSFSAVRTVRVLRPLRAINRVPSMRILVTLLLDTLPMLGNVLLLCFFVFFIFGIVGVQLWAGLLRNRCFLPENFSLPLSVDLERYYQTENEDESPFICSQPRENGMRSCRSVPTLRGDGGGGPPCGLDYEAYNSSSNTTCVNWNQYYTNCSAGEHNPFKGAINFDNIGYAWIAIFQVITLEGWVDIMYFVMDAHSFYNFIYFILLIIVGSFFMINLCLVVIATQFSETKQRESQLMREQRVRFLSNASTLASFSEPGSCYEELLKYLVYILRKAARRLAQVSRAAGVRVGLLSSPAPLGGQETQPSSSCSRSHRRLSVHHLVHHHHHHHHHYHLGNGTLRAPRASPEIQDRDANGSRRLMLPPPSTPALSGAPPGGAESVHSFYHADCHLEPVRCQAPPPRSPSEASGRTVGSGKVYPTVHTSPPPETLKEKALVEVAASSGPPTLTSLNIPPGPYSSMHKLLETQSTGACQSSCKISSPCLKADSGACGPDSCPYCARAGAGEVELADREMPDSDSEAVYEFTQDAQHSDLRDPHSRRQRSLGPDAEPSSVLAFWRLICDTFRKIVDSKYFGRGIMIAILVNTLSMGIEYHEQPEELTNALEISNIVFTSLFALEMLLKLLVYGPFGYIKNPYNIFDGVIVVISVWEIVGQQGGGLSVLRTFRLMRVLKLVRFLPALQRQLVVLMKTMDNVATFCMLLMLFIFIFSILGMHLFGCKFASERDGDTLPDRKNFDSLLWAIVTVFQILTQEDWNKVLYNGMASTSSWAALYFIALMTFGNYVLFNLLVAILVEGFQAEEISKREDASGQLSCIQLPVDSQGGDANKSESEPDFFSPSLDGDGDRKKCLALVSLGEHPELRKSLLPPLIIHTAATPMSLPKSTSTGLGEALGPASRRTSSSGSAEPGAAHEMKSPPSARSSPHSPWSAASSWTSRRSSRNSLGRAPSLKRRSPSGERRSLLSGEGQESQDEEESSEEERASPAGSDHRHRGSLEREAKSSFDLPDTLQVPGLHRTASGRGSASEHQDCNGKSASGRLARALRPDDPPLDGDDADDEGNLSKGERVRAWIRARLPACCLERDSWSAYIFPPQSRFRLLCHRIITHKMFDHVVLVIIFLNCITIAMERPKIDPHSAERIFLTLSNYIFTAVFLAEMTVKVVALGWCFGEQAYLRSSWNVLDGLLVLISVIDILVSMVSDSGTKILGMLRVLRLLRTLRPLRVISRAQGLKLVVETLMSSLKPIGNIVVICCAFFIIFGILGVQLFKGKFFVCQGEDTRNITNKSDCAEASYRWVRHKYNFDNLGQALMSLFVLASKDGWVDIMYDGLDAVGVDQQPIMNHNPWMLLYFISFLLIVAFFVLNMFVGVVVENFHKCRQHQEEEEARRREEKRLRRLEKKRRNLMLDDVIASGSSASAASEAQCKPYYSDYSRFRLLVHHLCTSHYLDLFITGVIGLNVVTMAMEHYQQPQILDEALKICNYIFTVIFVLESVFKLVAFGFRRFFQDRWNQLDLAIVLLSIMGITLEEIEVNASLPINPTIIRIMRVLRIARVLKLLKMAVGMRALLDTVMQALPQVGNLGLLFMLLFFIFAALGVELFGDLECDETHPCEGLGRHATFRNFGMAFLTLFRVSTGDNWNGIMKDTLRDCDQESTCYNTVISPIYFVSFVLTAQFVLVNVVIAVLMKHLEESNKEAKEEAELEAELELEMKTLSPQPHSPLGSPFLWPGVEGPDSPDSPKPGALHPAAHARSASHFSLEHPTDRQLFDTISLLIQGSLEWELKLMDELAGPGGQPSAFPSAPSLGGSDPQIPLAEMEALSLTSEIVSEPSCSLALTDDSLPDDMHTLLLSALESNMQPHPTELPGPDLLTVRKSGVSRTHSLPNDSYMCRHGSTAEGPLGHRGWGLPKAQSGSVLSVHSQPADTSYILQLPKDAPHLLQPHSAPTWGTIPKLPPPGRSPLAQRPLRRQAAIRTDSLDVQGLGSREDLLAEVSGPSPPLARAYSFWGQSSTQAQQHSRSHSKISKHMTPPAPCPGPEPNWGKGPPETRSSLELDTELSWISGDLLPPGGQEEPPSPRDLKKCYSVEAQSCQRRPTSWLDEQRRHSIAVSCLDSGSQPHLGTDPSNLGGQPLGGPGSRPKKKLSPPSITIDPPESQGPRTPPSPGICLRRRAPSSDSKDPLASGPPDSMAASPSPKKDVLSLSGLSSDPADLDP

Row | SMILES | melting point | inhibition at 10 µM [1, 2] | inhibition at 10 µM [1, 3] | % Inhibition [α1G, 10 μM) using FDSS6000 ([1]; 10 μM, Table 4 (Chemical Formula 3 series), hydrobromide)
1 | Br.CCc1ccc(-c2csc(N=C(N)N)n2)cc1 [KHG24387, 2-(4-(4-ethylphenyl)thiazole-2-yl)guanidine hydrobromide] | 234.8 °C | 17.1% |  | 
2 | Cl.NC(N)=Nc1nc(-c2ccc3c(c2)OCC(=O)N3)cs1 [KHG24037, 2-(4-(3-oxo-3,4-dihydro-2H-benzo[b][1,4]oxazine-7-yl)thiazole-2-yl)guanidine hydrochloride] | 233.3 °C | 21.2% |  | 
3 | Br.NC(N)=Nc1nc(-c2ccccc2Cl)cs1 [KHG24373, 2-(4-(2-chlorophenyl)thiazole-2-yl)guanidine hydrobromide] | 211.9 °C | 21.7% |  | 
4 | Br.Cc1cccc(-c2csc(N=C(N)N)n2)c1 [KHG24382, 2-(4-m-tolylthiazole-2-yl)guanidine hydrobromide] | 232.4 °C | 22.3% |  | 
5 | Cc1nc(N=C(N)N)sc1Cc1ccc(F)cc1.Cl | 245.6 °C |  |  | 
6 | Cl.NC(N)=Nc1nc(-c2ccc(Cl)cc2)cs1 [KHG24024, 2-(4-(4-chlorophenyl)thiazole-2-yl)guanidine hydrochloride] | 264.9 °C | 13% |  | 
7 | Br.NC(N)=Nc1nc(-c2cc(F)ccc2F)cs1 [KHG24391, 2-(4-(2,5-difluorophenyl)thiazole-2-yl)guanidine hydrobromide] | 252.1 °C | 20.8% |  | 
8 | Br.NC(N)=Nc1nc(-c2cccc(Br)c2)cs1 [KHG24386, 2-(4-(3-bromophenyl)thiazole-2-yl)guanidine hydrobromide] | 179.8 °C | 10.9% |  | 
9 | Cl.NC(N)=Nc1nc(-c2ccc(F)cc2)cs1 [KHG24025, 2-(4-(4-fluorophenyl)thiazole-2-yl)guanidine hydrochloride] | 223.3 °C | 19.9% |  | 
10 | Br.COc1ccc(-c2csc(N=C(N)N)n2)c(OC)c1 [KHG24376, 2-(4-(2,4-dimethoxyphenyl)thiazole-2-yl)guanidine hydrobromide] | 213 °C | 16.1% |  | 
11 | Br.NC(N)=Nc1nc(-c2cccc(F)c2)cs1 [KHG24383, 2-(4-(3-fluorophenyl)thiazole-2-yl)guanidine hydrobromide] | 242.1 °C | 21.6% |  | 
12 | Br.NC(N)=Nc1nc(-c2cccc(Cl)c2)cs1 [KHG24388, 2-(4-(3-chlorophenyl)thiazole-2-yl)guanidine hydrobromide] | 210.4 °C | 10.8% |  | 
13 | Br.NC(N)=Nc1nc(-c2ccccc2F)cs1 [KHG24384, 2-(4-(2-fluorophenyl)thiazole-2-yl)guanidine hydrobromide] | 229.6 °C | 20.3% |  | 
14 | Cl.NC(N)=Nc1nc(-c2ccc(-c3ccccc3)cc2)cs1 [KHG24038, 2-(4-(biphenyl-4-yl)thiazole-2-yl)guanidine hydrochloride] | 300.3 °C | 14.2% |  | 
15 | Br.NC(N)=Nc1nc(-c2ccc(Cl)c(Cl)c2)cs1 [KHG24390, 2-(4-(3,4-dichlorophenyl)thiazole-2-yl)guanidine hydrobromide] | 256.3 °C | 7.32% |  | 
16 | NC(N)=Nc1nc(-c2ccc3[nH]c(=O)oc3c2)cs1 [KHG24022, 2-(4-(2-oxo-2,3-dihydrobenzo[d]oxazole-6-yl)thiazole-2-yl)guanidine hydrochloride] |  | 10.1% |  | 
17 | NC(N)=Nc1nc(CC(=O)Nc2c(Cl)cc(OC(F)(F)F)cc2Cl)cs1 [KHG23398, 2-(2-(diaminomethyleneamino)thiazole-4-yl)-N-(2,6-dichloro-4-(trifluoromethoxy)phenyl)acetamide hydrochloride] |  |  | 0.2% | 
18 | NC(N)=Nc1nc(-c2ccc3ccccc3c2)cs1 [KHG24039, 2-(4-(naphthalene-2-yl)thiazole-2-yl)guanidine hydrochloride] |  | 21.9% |  | 
19 | NC(N)=Nc1nc(-c2ccc([N+](=O)[O-])cc2)cs1 [KHG24389, 2-(4-(4-nitrophenyl)thiazole-2-yl)guanidine hydrobromide] |  | 21.9% |  | 
20 | Br.NC(N)=Nc1nc(-c2ccc([N+](=O)[O-])cc2)cs1 [KHG24375, 2-(4-(4-nitrophenyl)thiazole-2-yl)guanidine hydrobromide] |  |  |  | 19.90%

Other lines, results leading:

Row | melting point | inhibition at 10 µM [1, 2] | inhibition at 10 µM [1, 3] | % Inhibition [α1G, 10 μM) using FDSS6000 ([1]; 10 μM, Table 4 (Chemical Formula 3 series), hydrobromide) | SMILES
21 | 169.3 to 170.1 °C |  | 19.3% |  | Cc1ccc(CCNC(=O)Cc2csc(N=C(N)N)n2)cc1.Cl [KHG23188, 2-(2-(diaminomethyleneamino)thiazole-4-yl)-N-(4-methylphenethyl)acetamide hydrochloride]
22 | 246.4 to 247 °C |  | 34.5% |  | Cl.NC(N)=Nc1nc(CC(=O)Nc2ccc(Br)cc2)cs1 [KHG23178, N-(4-bromophenyl)-2-(2-(diaminomethyleneamino)thiazole-4-yl)acetamide hydrochloride]
23 | 207.3 to 208.2 °C |  | 21.5% |  | Cl.NC(N)=Nc1nc(CC(=O)Nc2ccc(F)cc2)cs1 [KHG23171, 2-(2-(diaminomethyleneamino)thiazole-4-yl)-N-(4-fluorophenyl)acetamide hydrochloride]
24 | 218.6 to 220 °C |  | 18.8% |  | Cc1ccc(NC(=O)Cc2csc(N=C(N)N)n2)c(Cl)c1.Cl [KHG23174, N-(2-chloro-4-methylphenyl)-2-(2-(diaminomethyleneamino)thiazole-4-yl)acetamide hydrochloride]
25 | 232.8 to 233.9 °C |  | 23.2% |  | Cl.NC(N)=Nc1nc(CC(=O)Nc2ccc(F)cc2Cl)cs1 [KHG23169, N-(2-chloro-4-fluorophenyl)-2-(2-(diaminomethyleneamino)thiazole-4-yl)acetamide hydrochloride]
26 | 244.3 to 245 °C |  | 24.9% |  | Cl.NC(N)=Nc1nc(CC(=O)Nc2ccc(Cl)cc2)cs1 [KHG23184, N-(4-chlorophenyl)-2-(2-(diaminomethyleneamino)thiazole-4-yl)acetamide hydrochloride]
27 | 197.8 to 198.1 °C |  | 23.3% |  | Cl.NC(N)=Nc1nc(CC(=O)Nc2ccccc2)cs1 [KHG23177, 2-(2-(diaminomethyleneamino)thiazole-4-yl)-N-phenylacetamide hydrochloride]
28 | 218.4 to 219.4 °C |  | 20.5% |  | Cl.N#Cc1ccc(NC(=O)Cc2csc(N=C(N)N)n2)cc1 [KHG23176, N-(4-cyanophenyl)-2-(2-(diaminomethyleneamino)thiazole-4-yl)acetamide hydrochloride]
29 |  |  | 0.8% |  | NC(N)=Nc1nc(CC(=O)Nc2c(Cl)cc(C(F)(F)F)cc2Cl)cs1 [KHG23391, 2-(2-(diaminomethyleneamino)thiazole-4-yl)-N-(2,6-dichloro-4-(trifluoromethyl)phenyl)acetamide hydrochloride]
30 |  |  | 3.8% |  | COc1ccc(NC(=O)Cc2csc(N=C(N)N)n2)c(C)c1 [KHG23393, 2-(2-(diaminomethyleneamino)thiazole-4-yl)-N-(4-methoxy-2-methylphenyl)acetamide hydrochloride]
31 |  |  | 21.6% |  | NC(N)=Nc1nc(CC(=O)Nc2cc([N+](=O)[O-])ccc2F)cs1 [KHG23168, 2-(2-(diaminomethyleneamino)thiazole-4-yl)-N-(2-fluoro-5-nitrophenyl)acetamide hydrochloride]
32 |  |  | 6.2% |  | CCCCCCCCCCc1ccc(NC(=O)Cc2csc(N=C(N)N)n2)cc1 [KHG23381, N-(4-decylphenyl)-2-(2-(diaminomethyleneamino)thiazole-4-yl)acetamide hydrochloride]
33 |  |  | 21% |  | NC(N)=Nc1nc(CC(=O)NCCc2ccc(F)cc2)cs1 [KHG23190, 2-(2-(diaminomethyleneamino)thiazole-4-yl)-N-(4-fluorophenethyl)acetamide hydrochloride]
